ChEMBL document CHEMBL5724806, “Unraveling interindividual differences and functional consequences of gut microbial metabolism of immunosuppressants” (2024)

Key:
Format in all cases: ADME
[1] = (§1) The drug is tested on Lactobacillus fermentum strain: DSM20052 for biotransformation under anaerobic condition. The drug concentrations were measured over 6 timepoints collected between 0 and 12 hours of incubation by liquid-chromatography-coupled mass spectrometry (LC–MS); set-up: dose 5 uM, timepoint 0, 1.5, 3, 6, 9, 12 hours; settings: limosilactobacillus fermentum, 5 µM
[2] = as §1, with “the gut metagenome community of P-04 with ENA study accession number: PRJEB31790” for “Lactobacillus fermentum strain: DSM20052”, “7” for “6”; set-up: dose 5 uM, timepoint 0, 0.75, 1.5, 3, 6, 9, 12 hours; settings: 5 µM
[3] = The drug is tested on Eubacterium rectale strain: DSM17629 for biotransformation under anaerobic condition. The drug concentrations were measured over 6 timepoints collected between 0 and 12 hours of incubation by liquid-chromatography-coupled mass spectrometry (LC–MS); set-up: dose 5 uM, timepoint 0, 1.5, 3, 6, 9, 12 hours; settings: agathobacter rectalis, 5 µM
[4] = (§2) The drug is tested on Lactobacillus reuteri strain: DSM20016 for biotransformation under microaerobic condition. The drug concentrations were measured over 6 timepoints collected between 0 and 12 hours of incubation by liquid-chromatography-coupled mass spectrometry (LC–MS); set-up: dose 5 uM, timepoint 0, 1.5, 3, 6, 9, 12 hours; settings: limosilactobacillus reuteri, 5 µM
[5] = The drug is tested on Alloscardovia omnicolens strain: DSM21503 for biotransformation under microaerobic condition. The drug concentrations were measured over 6 timepoints collected between 0 and 12 hours of incubation by liquid-chromatography-coupled mass spectrometry (LC–MS); set-up: dose 5 uM, timepoint 0, 1.5, 3, 6, 9, 12 hours; settings: 5 µM
[6] = The drug is tested on Blautia hansenii strain: DSM20583 for biotransformation under anaerobic condition. The drug concentrations were measured over 6 timepoints collected between 0 and 12 hours of incubation by liquid-chromatography-coupled mass spectrometry (LC–MS); set-up: dose 5 uM, timepoint 0, 1.5, 3, 6, 9, 12 hours; settings: 5 µM
[7] = as §1, with “the gut metagenome community of A-05 with ENA study accession number: PRJEB31790” for “Lactobacillus fermentum strain: DSM20052”, “7” for “6”; set-up: dose 5 uM, timepoint 0, 0.75, 1.5, 3, 6, 9, 12 hours; settings: 5 µM
[8] = as §2, with “the gut metagenome community of A-01 with ENA study accession number: PRJEB31790” for “Lactobacillus reuteri strain: DSM20016”, “7” for “6”; set-up: dose 5 uM, timepoint 0, 0.75, 1.5, 3, 6, 9, 12 hours; settings: 5 µM
[9] = The drug is tested on Clostridium scindens strain: DSM5676 for biotransformation under anaerobic condition. The drug concentrations were measured over 6 timepoints collected between 0 and 12 hours of incubation by liquid-chromatography-coupled mass spectrometry (LC–MS); set-up: dose 5 uM, timepoint 0, 1.5, 3, 6, 9, 12 hours; settings: 5 µM
[10] = The drug is tested on Enterococcus faecalis strain: ATCC29212 for biotransformation under microaerobic condition. The drug concentrations were measured over 6 timepoints collected between 0 and 12 hours of incubation by liquid-chromatography-coupled mass spectrometry (LC–MS); set-up: dose 5 uM, timepoint 0, 1.5, 3, 6, 9, 12 hours; settings: 5 µM
[11] = The drug is tested on Lactobacillus ruminis strain: ATCC25644 for biotransformation under anaerobic condition. The drug concentrations were measured over 6 timepoints collected between 0 and 12 hours of incubation by liquid-chromatography-coupled mass spectrometry (LC–MS); set-up: dose 5 uM, timepoint 0, 1.5, 3, 6, 9, 12 hours; settings: ligilactobacillus ruminis, 5 µM
[12] = as §1, with “the gut metagenome community of A-08 with ENA study accession number: PRJEB31790” for “Lactobacillus fermentum strain: DSM20052”, “7” for “6”; set-up: dose 5 uM, timepoint 0, 0.75, 1.5, 3, 6, 9, 12 hours; settings: 5 µM
[13] = as §1, with “the gut metagenome community of A-01 with ENA study accession number: PRJEB31790” for “Lactobacillus fermentum strain: DSM20052”, “7” for “6”; set-up: dose 5 uM, timepoint 0, 0.75, 1.5, 3, 6, 9, 12 hours; settings: 5 µM
[14] = The drug is tested on Collinsella aerofaciens strain: DSM3979 for biotransformation under anaerobic condition. The drug concentrations were measured over 6 timepoints collected between 0 and 12 hours of incubation by liquid-chromatography-coupled mass spectrometry (LC–MS); set-up: dose 5 uM, timepoint 0, 1.5, 3, 6, 9, 12 hours; settings: 5 µM
[15] = The drug is tested on Lactobacillus fermentum strain: DSM20052 for biotransformation under microaerobic condition. The drug concentrations were measured over 6 timepoints collected between 0 and 12 hours of incubation by liquid-chromatography-coupled mass spectrometry (LC–MS); set-up: dose 5 uM, timepoint 0, 1.5, 3, 6, 9, 12 hours; settings: limosilactobacillus fermentum, 5 µM
[16] = The drug is tested on Streptococcus sanguinis strain: DSM20567 for biotransformation under microaerobic condition. The drug concentrations were measured over 6 timepoints collected between 0 and 12 hours of incubation by liquid-chromatography-coupled mass spectrometry (LC–MS); set-up: dose 5 uM, timepoint 0, 1.5, 3, 6, 9, 12 hours; settings: 5 µM
[17] = as §2, with “the gut metagenome community of A-05 with ENA study accession number: PRJEB31790” for “Lactobacillus reuteri strain: DSM20016”, “7” for “6”; set-up: dose 5 uM, timepoint 0, 0.75, 1.5, 3, 6, 9, 12 hours; settings: 5 µM
[18] = as §2, with “the gut metagenome community of A-03 with ENA study accession number: PRJEB31790” for “Lactobacillus reuteri strain: DSM20016”, “7” for “6”; set-up: dose 5 uM, timepoint 0, 0.75, 1.5, 3, 6, 9, 12 hours; settings: 5 µM
[19] = as §1, with “the gut metagenome community of A-07 with ENA study accession number: PRJEB31790” for “Lactobacillus fermentum strain: DSM20052”, “7” for “6”; set-up: dose 5 uM, timepoint 0, 0.75, 1.5, 3, 6, 9, 12 hours; settings: 5 µM
[20] = as §1, with “the gut metagenome community of A-09 with ENA study accession number: PRJEB31790” for “Lactobacillus fermentum strain: DSM20052”, “7” for “6”; set-up: dose 5 uM, timepoint 0, 0.75, 1.5, 3, 6, 9, 12 hours; settings: 5 µM
[21] = The drug is tested on Bacteroides uniformis strain: DSM6597 for biotransformation under anaerobic condition. The drug concentrations were measured over 6 timepoints collected between 0 and 12 hours of incubation by liquid-chromatography-coupled mass spectrometry (LC–MS); set-up: dose 5 uM, timepoint 0, 1.5, 3, 6, 9, 12 hours; settings: 5 µM
[22] = The drug is tested on Actinomyces naeslundi strain: DSM43013 for biotransformation under microaerobic condition. The drug concentrations were measured over 6 timepoints collected between 0 and 12 hours of incubation by liquid-chromatography-coupled mass spectrometry (LC–MS); set-up: dose 5 uM, timepoint 0, 1.5, 3, 6, 9, 12 hours; settings: actinomyces naeslundii, 5 µM
[23] = The drug is tested on Bacteroides ovatus strain: ATCC 8483 for biotransformation under anaerobic condition. The drug concentrations were measured over 6 timepoints collected between 0 and 12 hours of incubation by liquid-chromatography-coupled mass spectrometry (LC–MS); set-up: dose 5 uM, timepoint 0, 1.5, 3, 6, 9, 12 hours; settings: 5 µM
[24] = The drug is tested on Gemella haemolysans strain: DSM107751 for biotransformation under microaerobic condition. The drug concentrations were measured over 6 timepoints collected between 0 and 12 hours of incubation by liquid-chromatography-coupled mass spectrometry (LC–MS); set-up: dose 5 uM, timepoint 0, 1.5, 3, 6, 9, 12 hours; settings: 5 µM
[25] = The drug is tested on Bacteroides caccae strain: DSM19024 for biotransformation under anaerobic condition. The drug concentrations were measured over 6 timepoints collected between 0 and 12 hours of incubation by liquid-chromatography-coupled mass spectrometry (LC–MS); set-up: dose 5 uM, timepoint 0, 1.5, 3, 6, 9, 12 hours; settings: 5 µM
[26] = The drug is tested on Streptococcus anginosus strain: DSM20563 for biotransformation under microaerobic condition. The drug concentrations were measured over 6 timepoints collected between 0 and 12 hours of incubation by liquid-chromatography-coupled mass spectrometry (LC–MS); set-up: dose 5 uM, timepoint 0, 1.5, 3, 6, 9, 12 hours; settings: 5 µM
[27] = as §2, with “the gut metagenome community of A-06 with ENA study accession number: PRJEB31790” for “Lactobacillus reuteri strain: DSM20016”, “7” for “6”; set-up: dose 5 uM, timepoint 0, 0.75, 1.5, 3, 6, 9, 12 hours; settings: 5 µM
[28] = as §2, with “the gut metagenome community of P-02 with ENA study accession number: PRJEB31790” for “Lactobacillus reuteri strain: DSM20016”, “7” for “6”; set-up: dose 5 uM, timepoint 0, 0.75, 1.5, 3, 6, 9, 12 hours; settings: 5 µM
[29] = The drug is tested on Capnocytophaga ochracea strain: DSM7271 for biotransformation under microaerobic condition. The drug concentrations were measured over 6 timepoints collected between 0 and 12 hours of incubation by liquid-chromatography-coupled mass spectrometry (LC–MS); set-up: dose 5 uM, timepoint 0, 1.5, 3, 6, 9, 12 hours; settings: 5 µM
[30] = The drug is tested on Bacteroides fragilis strain: DSM2151 for biotransformation under anaerobic condition. The drug concentrations were measured over 6 timepoints collected between 0 and 12 hours of incubation by liquid-chromatography-coupled mass spectrometry (LC–MS); set-up: dose 5 uM, timepoint 0, 1.5, 3, 6, 9, 12 hours; settings: 5 µM

| SMILES | Bacterial Biotransformation [1] | Bacterial Biotransformation [2] | Bacterial Biotransformation [3] | Bacterial Biotransformation [4] | Bacterial Biotransformation [5] | Bacterial Biotransformation [6] | Bacterial Biotransformation [7] | Bacterial Biotransformation [8] | Bacterial Biotransformation [9] | Bacterial Biotransformation [10] | Bacterial Biotransformation [11] | Bacterial Biotransformation [12] | Bacterial Biotransformation [13] | Bacterial Biotransformation [14] | Bacterial Biotransformation [15] | Bacterial Biotransformation [16] | Bacterial Biotransformation [17] | Bacterial Biotransformation [18] | Bacterial Biotransformation [19] | Bacterial Biotransformation [20] | further results |
| --- | --- | --- | --- | --- | --- | --- | --- | --- | --- | --- | --- | --- | --- | --- | --- | --- | --- | --- | --- | --- | --- |
| C[C@]12CCC(=O)C=C1CC[C@@H]1[C@@H]2[C@@H](O)C[C@@]2(C)[C@H]1CC[C@]2(O)C(=O)CO [HYDROCORTISONE] | Compound NOT metabolized | Compound metabolized | Compound NOT metabolized | Compound NOT metabolized | Compound NOT metabolized | Compound NOT metabolized | Compound metabolized | Compound metabolized | Compound metabolized | Compound NOT metabolized | Compound NOT metabolized | Compound metabolized | Compound metabolized | Compound NOT metabolized | Compound NOT metabolized | Compound NOT metabolized | Compound metabolized | Compound metabolized | Compound metabolized | Compound metabolized | Bacterial Biotransformation [21]: Compound NOT metabolized; Bacterial Biotransformation [22]: Compound NOT metabolized; Bacterial Biotransformation [23]: Compound NOT metabolized; Bacterial Biotransformation [24]: Compound NOT metabolized; Bacterial Biotransformation [25]: Compound NOT metabolized; Bacterial Biotransformation [26]: Compound NOT metabolized; Bacterial Biotransformation [27]: Compound metabolized; Bacterial Biotransformation [28]: Compound NOT metabolized; Bacterial Biotransformation [29]: Compound NOT metabolized; Bacterial Biotransformation [30]: Compound NOT metabolized |
| CN(Cc1cnc2nc(N)nc(N)c2n1)c1ccc(C(=O)N[C@@H](CCC(=O)O)C(=O)O)cc1 [METHOTREXATE] | Compound NOT metabolized | Compound NOT metabolized | Compound NOT metabolized | Compound NOT metabolized | Compound NOT metabolized | Compound NOT metabolized | Compound NOT metabolized | Compound NOT metabolized | Compound NOT metabolized | Compound NOT metabolized | Compound NOT metabolized | Compound metabolized | Compound NOT metabolized | Compound NOT metabolized | Compound NOT metabolized | Compound NOT metabolized | Compound NOT metabolized | Compound NOT metabolized | Compound metabolized | Compound metabolized | Bacterial Biotransformation [21]: Compound NOT metabolized; Bacterial Biotransformation [22]: Compound NOT metabolized; Bacterial Biotransformation [23]: Compound NOT metabolized; Bacterial Biotransformation [24]: Compound NOT metabolized; Bacterial Biotransformation [25]: Compound NOT metabolized; Bacterial Biotransformation [26]: Compound NOT metabolized; Bacterial Biotransformation [27]: Compound metabolized; Bacterial Biotransformation [28]: Compound NOT metabolized; Bacterial Biotransformation [29]: Compound NOT metabolized; Bacterial Biotransformation [30]: Compound NOT metabolized |
| C[C@H]1C[C@@H]2[C@H]([C@@H](O)C[C@@]3(C)[C@H]2CC[C@]3(O)C(=O)CO)[C@@]2(C)C=CC(=O)C=C12 [METHYLPREDNISOLONE] | Compound NOT metabolized | Compound metabolized | Compound NOT metabolized | Compound NOT metabolized | Compound NOT metabolized | Compound NOT metabolized | Compound metabolized | Compound metabolized | Compound metabolized | Compound NOT metabolized | Compound NOT metabolized | Compound metabolized | Compound metabolized | Compound NOT metabolized | Compound NOT metabolized | Compound NOT metabolized | Compound metabolized | Compound metabolized | Compound metabolized | Compound metabolized | Bacterial Biotransformation [21]: Compound NOT metabolized; Bacterial Biotransformation [22]: Compound NOT metabolized; Bacterial Biotransformation [23]: Compound NOT metabolized; Bacterial Biotransformation [24]: Compound NOT metabolized; Bacterial Biotransformation [25]: Compound NOT metabolized; Bacterial Biotransformation [26]: Compound NOT metabolized; Bacterial Biotransformation [27]: Compound metabolized; Bacterial Biotransformation [28]: Compound metabolized; Bacterial Biotransformation [29]: Compound NOT metabolized; Bacterial Biotransformation [30]: Compound NOT metabolized |
